In ChEMBL document CHEMBL1137106, “Piperazinebenzylamines as potent and selective antagonists of the human melanocortin-4 receptor” (Bioorg Med Chem Lett, 2004):

Tests used:
Melanocortin receptor 4 [1] = target: T1, Melanocortin receptor 4 (Homo sapiens, UniProt P32245); experiment: Binding affinity towards human melanocortin 4 receptor expressed in HEK 293 cells was determined by using [125I]NDP-MSH as radioligand; format: cell-based, HEK293
[2] = target: T2, Melanocyte-stimulating hormone receptor (Homo sapiens, UniProt Q01726); experiment: Binding affinity towards human melanocortin 1 receptor expressed in HEK 293 cells was determined by using [125I]NDP-MSH as radioligand; format: cell-based, HEK293
Target sequence in this assay (Q01726 whole entry): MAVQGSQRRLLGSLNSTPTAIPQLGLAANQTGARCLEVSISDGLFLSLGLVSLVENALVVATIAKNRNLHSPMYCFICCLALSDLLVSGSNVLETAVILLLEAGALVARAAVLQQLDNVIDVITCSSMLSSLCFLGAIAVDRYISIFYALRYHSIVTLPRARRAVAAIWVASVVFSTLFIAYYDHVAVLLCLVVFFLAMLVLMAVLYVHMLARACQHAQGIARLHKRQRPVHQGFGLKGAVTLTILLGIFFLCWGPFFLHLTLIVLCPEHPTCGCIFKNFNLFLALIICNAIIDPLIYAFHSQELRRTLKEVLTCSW

Cell line [3] = experiment: Concentration required for inhibition of alpha-MSH stimulated cAMP production by 50%; format: functional, cell-based; conditions: Homo sapiens
Melanocortin receptor 3 = Melanocortin receptor 3 (Homo sapiens, UniProt P41968); experiment: Binding affinity towards human melanocortin 3 receptor expressed in HEK 293 cells was determined by using [125I]NDP-MSH as radioligand; format: cell-based, HEK293
Cell line [4] = experiment: Percentage of alpha-MSH stimulated cAMP level at 10 uM; format: functional, Homo sapiens
Melanocortin receptor 5 = Melanocortin receptor 5 (Homo sapiens, UniProt P33032); experiment: Binding affinity towards human melanocortin 5 receptor expressed in HEK 293 cells was determined by using [125I]NDP-MSH as radioligand; format: cell-based, HEK293
Cell line [5] = experiment: Effective concentration required for alpha-MSH stimulated cAMP production at 10 uM; format: functional, cell-based; conditions: Homo sapiens
Melanocortin receptor 4 [6] = target: T1, Melanocortin receptor 4; experiment: Tested for inhibition of binding to MC4 receptor
[7] = Tested for inhibition of NDP-MSH binding; format: functional
Cell line [8] = experiment: Effective concentration required for alpha-MSH stimulated cAMP production; format: functional, cell-based; conditions: Homo sapiens
[9] = target: T2, Melanocyte-stimulating hormone receptor; experiment: Percent inhibition of [125I]NDP-MSH binding to human melanocortin 1 receptor expressed in HEK 293 cells at 10 uM; format: cell-based; conditions: HEK293
Target sequence in this assay (Q01726 whole entry, looked up): as the sequence (Q01726 whole entry) above

Melanocortin receptor 5, sequence (P33032 whole entry): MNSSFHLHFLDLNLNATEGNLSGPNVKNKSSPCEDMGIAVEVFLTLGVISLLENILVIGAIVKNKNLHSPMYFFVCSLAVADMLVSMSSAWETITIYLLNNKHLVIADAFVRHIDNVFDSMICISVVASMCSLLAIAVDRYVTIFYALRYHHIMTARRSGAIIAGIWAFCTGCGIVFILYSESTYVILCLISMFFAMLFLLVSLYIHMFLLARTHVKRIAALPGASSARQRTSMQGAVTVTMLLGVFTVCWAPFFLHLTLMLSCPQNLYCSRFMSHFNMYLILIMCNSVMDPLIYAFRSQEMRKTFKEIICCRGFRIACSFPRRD
T1 sequence (P32245 whole entry): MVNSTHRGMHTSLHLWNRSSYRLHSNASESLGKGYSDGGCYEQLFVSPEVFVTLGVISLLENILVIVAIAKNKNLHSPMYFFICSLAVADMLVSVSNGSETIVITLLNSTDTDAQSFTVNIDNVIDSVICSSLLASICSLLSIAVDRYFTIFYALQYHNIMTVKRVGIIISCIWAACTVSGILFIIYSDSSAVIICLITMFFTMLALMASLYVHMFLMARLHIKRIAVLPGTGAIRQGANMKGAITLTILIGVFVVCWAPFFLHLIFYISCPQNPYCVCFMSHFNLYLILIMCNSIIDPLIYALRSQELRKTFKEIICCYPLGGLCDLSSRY
Melanocortin receptor 3, sequence (P41968 whole entry): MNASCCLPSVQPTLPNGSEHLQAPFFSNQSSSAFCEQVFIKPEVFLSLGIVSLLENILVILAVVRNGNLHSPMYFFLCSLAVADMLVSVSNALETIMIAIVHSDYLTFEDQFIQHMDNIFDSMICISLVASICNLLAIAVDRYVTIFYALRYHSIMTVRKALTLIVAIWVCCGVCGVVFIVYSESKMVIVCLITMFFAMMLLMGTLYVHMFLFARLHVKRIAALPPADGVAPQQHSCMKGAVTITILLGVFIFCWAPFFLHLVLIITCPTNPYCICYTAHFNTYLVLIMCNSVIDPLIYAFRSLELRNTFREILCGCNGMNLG

| Ki (Melanocortin receptor 4 [1]) | EC50 (Cell line [5]) | SMILES | IA (Cell line [4]) | other results |
| --- | --- | --- | --- | --- |
| 14 nM |  | NCCCC(=O)N[C@H](Cc1ccc(Cl)cc1)C(=O)N1CCN(c2ccccc2CNCCc2cccs2)CC1 | 15% | Ki [2]: 1200 nM; IC50 (Cell line [3]): 66 nM; Ki (Melanocortin receptor 3): 1400 nM; Ki (Melanocortin receptor 5): 1000 nM |
| 110 nM |  | CC(NCCc1cccs1)c1ccccc1N1CCN(C(=O)[C@@H](Cc2ccc(Cl)cc2)NC(=O)CCN)CC1 (some centres not stated) | 32% |  |
| 6400 nM |  | NCC(Cc1ccc(Cl)cc1)C(=O)N1CCN(c2ccccc2CNCCc2cccs2)CC1 (configuration not stated) | <45% |  |
| 290 nM |  | CC(NCCNc1cccc2ccccc12)c1ccccc1N1CCN(C(=O)[C@@H](Cc2ccc(Cl)cc2)NC(=O)CCN)CC1 (some centres not stated) | 22% |  |
| 66 nM | 1500 nM | CC(C)(N)C(=O)N[C@H](Cc1ccc(Cl)cc1)C(=O)N1CCN(c2ccccc2CNCCc2cccs2)CC1 | 80% |  |
| 15 nM |  | O=C(N[C@H](Cc1ccc(Cl)cc1)C(=O)N1CCN(c2ccccc2CNCCc2cccs2)CC1)C1CCCNC1 (some centres not stated) | 12% | Ki [2]: 2300 nM; IC50 (Cell line [3]): 36 nM; Ki (Melanocortin receptor 3): 1400 nM; Ki (Melanocortin receptor 5): 720 nM |
| 140 nM | 1870 nM | CC(NCc1ccco1)c1ccccc1N1CCN(C(=O)[C@@H](Cc2ccc(Cl)cc2)NC(=O)CCN)CC1 (some centres not stated) | 99% |  |
| 1000 nM |  | O=C(CCc1ccc(Cl)cc1)N1CCN(c2ccccc2CNCCc2cccs2)CC1 | <45% |  |
| 46 nM |  | NC1(C(=O)N[C@H](Cc2ccc(Cl)cc2)C(=O)N2CCN(c3ccccc3CNCCc3cccs3)CC2)CC1 | 12% |  |
| 26 nM |  | O=C(N[C@H](Cc1ccc(Cl)cc1)C(=O)N1CCN(c2ccccc2CNCCc2cccs2)CC1)C1CCNCC1 | 39% |  |
| 38 nM | 1400 nM | CN(C)CC(=O)N[C@H](Cc1ccc(Cl)cc1)C(=O)N1CCN(c2ccccc2CNCCc2cccs2)CC1 | 45% |  |
| 150 nM | 590 nM | CC(N[C@@H]1CCCC[C@H]1N)c1ccccc1N1CCN(C(=O)[C@@H](Cc2ccc(Cl)cc2)NC(=O)CCN)CC1 (some centres not stated) | 64% |  |
|  |  | COc1ccc2ccccc2c1CCCCN1CCN(CC(c2ccc(F)cc2)N2CCN(C)CC2)CC1 (configuration not stated) |  | Ki (Melanocortin receptor 4 [6]): 7.9 nM |
| 75 nM | 1100 nM | O=C(N[C@H](Cc1ccc(Cl)cc1)C(=O)N1CCN(c2ccccc2CNCCc2cccs2)CC1)C1CCCCN1 (some centres not stated) | 60% |  |
| 40 nM | 1800 nM | O=C(CC1CCCN1)N[C@H](Cc1ccc(Cl)cc1)C(=O)N1CCN(c2ccccc2CNCCc2cccs2)CC1 (some centres not stated) | 57% |  |
|  |  | COc1ccc(Br)cc1CCc1c(Cl)cccc1-c1nc(C)c[nH]1 |  | Ki (Melanocortin receptor 4 [6]): 180 nM |
| 430 nM |  | CC(c1ccccc1N1CCN(C(=O)[C@@H](Cc2ccc(Cl)cc2)NC(=O)CCN)CC1)N1CCN(c2ccccc2)CC1 (some centres not stated) | 35% |  |
| 48 nM | 1630 nM | O=C(N[C@H](Cc1ccc(Cl)cc1)C(=O)N1CCN(c2ccccc2CNCCc2cccs2)CC1)C1CCN1 (some centres not stated) | 47% |  |
| > 10000 nM |  | O=C(C(O)c1ccc(Cl)cc1)N1CCN(c2ccccc2CNCCc2cccs2)CC1 (configuration not stated) | <45% |  |
| 120 nM | 364 nM | CC(NCc1ccccc1N)c1ccccc1N1CCN(C(=O)[C@@H](Cc2ccc(Cl)cc2)NC(=O)CCN)CC1 (some centres not stated) | 100% |  |
| 1000 nM |  | NC(Cc1ccccc1Cl)C(=O)N1CCN(c2ccccc2CNCCc2cccs2)CC1 (configuration not stated) | <45% |  |
| 30 nM | 2600 nM | CC(C)CC(N)C(=O)N[C@H](Cc1ccc(Cl)cc1)C(=O)N1CCN(c2ccccc2CNCCc2cccs2)CC1 (some centres not stated) | 45% |  |
|  |  | CC(CN1CCN(CC(c2ccc(F)cc2)N2CCN(C)CC2)CC1)C(=O)c1ccccc1 (configuration not stated) |  | IC50 [7]: 220 nM |

| Ki (Melanocortin receptor 4 [1]) | EC50 (Cell line [5]) | SMILES | IA (Cell line [4]) | other results |
| --- | --- | --- | --- | --- |
| 470 nM | 2720 nM | CC(Nc1ccccc1N)c1ccccc1N1CCN(C(=O)[C@@H](Cc2ccc(Cl)cc2)NC(=O)CCN)CC1 (some centres not stated) | 56% |  |
| 140 nM |  | CCC(NCCc1cccs1)c1ccccc1N1CCN(C(=O)[C@@H](Cc2ccc(Cl)cc2)NC(=O)CCN)CC1 (some centres not stated) | 29% |  |
| 410 nM |  | O=C([C@@H](Cc1ccc(Cl)cc1)NS(=O)(=O)CC(F)(F)F)N1CCN(c2ccccc2CNCCc2cccs2)CC1 | <45% |  |
| 600 nM | 8700 nM | N[C@H](Cc1ccc(Cl)cc1)C(=O)N1CCN(c2ccccc2CNCCc2cccs2)CC1 | 85% |  |
| > 10000 nM |  | O=C(Cc1ccc(Cl)cc1)N1CCN(c2ccccc2CNCCc2cccs2)CC1 | <45% |  |
| 1800 nM |  | NC(C(=O)N1CCN(c2ccccc2CNCCc2cccs2)CC1)c1ccc(Cl)cc1 (configuration not stated) | <45% |  |
|  |  | O=C(N[C@H](Cc1ccc(Cl)cc1)C(=O)N1CCN(c2ccccc2Cn2cncn2)CC1)[C@H]1Cc2ccccc2CN1 |  | EC50 (Cell line [8]): 80 nM |
| 21 nM |  | NCCC(=O)N[C@H](Cc1ccc(Cl)cc1)C(=O)N1CCN(c2ccccc2CNCCc2cccs2)CC1 | 14% | Ki [2]: 1300 nM; IC50 (Cell line [3]): 90 nM; Ki (Melanocortin receptor 3): 1000 nM; Ki (Melanocortin receptor 5): 1000 nM |
| 210 nM |  | CC(NCCN1CCCCC1)c1ccccc1N1CCN(C(=O)[C@@H](Cc2ccc(Cl)cc2)NC(=O)CCN)CC1 (some centres not stated) | 41% |  |
|  |  | COc1ccc(Br)cc1CCc1c(F)cccc1-c1ncc[nH]1 |  | Ki (Melanocortin receptor 4 [6]): 160 nM |
|  |  | CC(NC1CCCNC1)c1ccccc1N1CCN(C(=O)[C@@H](Cc2ccc(Cl)cc2)NC(=O)[C@H]2Cc3ccccc3CN2)CC1 (some centres not stated) |  | EC50 (Cell line [8]): 3.8 nM |
| 44 nM | 580 nM | NCC(=O)N[C@H](Cc1ccc(Cl)cc1)C(=O)N1CCN(c2ccccc2CNCCc2cccs2)CC1 | 77% | Ki (Melanocortin receptor 3): 1900 nM; Ki (Melanocortin receptor 5): 990 nM; inhibition [9]: 50% |
| 5400 nM |  | NC(CC(=O)N1CCN(c2ccccc2CNCCc2cccs2)CC1)c1ccc(Cl)cc1 (configuration not stated) | <45% |  |
| 41 nM |  | O=C(N[C@H](Cc1ccc(Cl)cc1)C(=O)N1CCN(c2ccccc2CNCCc2cccs2)CC1)c1cccnc1 | 5% | IC50 (Cell line [3]): 880 nM; Ki (Melanocortin receptor 3): 1800 nM; Ki (Melanocortin receptor 5): 730 nM; inhibition [9]: 23% |
| 290 nM |  | NCCC(=O)OC(Cc1ccc(Cl)cc1)C(=O)N1CCN(c2ccccc2CNCCc2cccs2)CC1 (configuration not stated) | <45% |  |
| 220 nM |  | CN(CCc1cccs1)Cc1ccccc1N1CCN(C(=O)[C@@H](Cc2ccc(Cl)cc2)NC(=O)CCN)CC1 | 32% |  |
| 50 nM | 1900 nM | O=C(N[C@H](Cc1ccc(Cl)cc1)C(=O)N1CCN(c2ccccc2CNCCc2cccs2)CC1)C1CCCN1 (some centres not stated) | 56% |  |
|  | 320 nM | O=C(N[C@H](Cc1ccc(Cl)cc1)C(=O)N1CCN(c2ccccc2CNCCc2cccs2)CC1)[C@H]1Cc2ccccc2CN1 | 100% |  |
| 86 nM | 471 nM | CC(c1ccccc1N1CCN(C(=O)[C@@H](Cc2ccc(Cl)cc2)NC(=O)CCN)CC1)N1CCN(C)CC1 (some centres not stated) | 59% |  |
| 70 nM |  | COCC(=O)N[C@H](Cc1ccc(Cl)cc1)C(=O)N1CCN(c2ccccc2CNCCc2cccs2)CC1 | 16% |  |
| 3800 nM |  | CC(C)(C(=O)N1CCN(c2ccccc2CNCCc2cccs2)CC1)c1ccc(Cl)cc1 | <45% |  |
| 3900 nM |  | NC(Cc1ccc(Cl)cc1)C(=O)N1CCN(c2ccccc2CNCCc2cccs2)CC1 (configuration not stated) | <45% |  |
